The NIST ThermoML archive (doi:10.1016/j.jct.2018.05.008)

Assay: mn = molality of the nth substance listed, in mol/kg
Conditions: 101.3 kPa, Liquid, Vibrating tube method

CCCCn1cc[n+](C)c1.[Br-] [1-butyl-3-methylimidazolium bromide] + O
mass density [kg/m3]
Conditions	288.15 K	298.15 K	308.15 K	310.15 K	318.15 K
m1 = 0.0493	1001.53	999.41	996.35	995.63	992.48
m1 = 0.0509	1001.61	999.52	996.47	995.75	992.61
m1 = 0.0513	1001.57	999.46	996.38	995.68	992.51
m1 = 0.0518	1001.67	999.57	996.52	995.81	992.66
m1 = 0.0557	1001.85	999.75	996.69	995.98	992.83
m1 = 0.1002	1003.91	1001.72	998.61	997.87	994.63
m1 = 0.1004	1004.02	1001.86	998.75	998.04	994.69
m1 = 0.101	1004.05	1001.87	998.72	998	994.83
m1 = 0.1073	1004.38	1002.22	999.1	998.38	995.11
m1 = 0.1133	1005.08	1002.9	999.78	999.06	995.72
m1 = 0.1957	1008.66	1006.35	1003.13	1002.38	999.01
m1 = 0.2009	1008.82	1006.51	1003.27	1002.54	999.26
m1 = 0.201	1008.91	1006.62	1003.37	1002.65	999.35
m1 = 0.2016	1009.08	1006.79	1003.57	1002.83	999.57
m1 = 0.2345	1010.39	1008.06	1004.81	1004.05	1000.65
m1 = 0.2633	1012.6	1010.24	1006.95	1006.2	1002.9
m1 = 0.2918	1013.08	1010.67	1007.36	1006.6	1003.16
m1 = 0.2964	1013.29	1010.87	1007.54	1006.76	1003.29
m1 = 0.2981	1013.19	1010.75	1007.42	1006.65	1003.33
m1 = 0.3007	1013.75	1011.3	1007.96	1007.19	1003.81

NCC(=O)O [2-aminoacetic acid] + O
mass density [kg/m3]
Conditions	m1 = 0.0602	m1 = 0.1201	m1 = 0.1992	m1 = 0.3016	m1 = 0.3854	m1 = 0.4462	m1 = 0.5271	m1 = 0.6444	m1 = 0.7856
288.15 K	1001.04	1002.97	1005.49	1008.71	1011.3	1013.17	1015.62	1019.16	1023.32
298.15 K	998.98	1000.87	1003.34	1006.49	1009.02	1010.84	1013.23	1016.66	1020.69
308.15 K	995.95	997.8	1000.22	1003.32	1005.82	1007.61	1009.97	1013.36	1017.38
310.15 K	995.25	997.1	999.51	1002.59	1005.07	1006.86	1009.22	1012.6	1016.6
318.15 K	992.13	993.97	–	999.45	1001.91	1003.69	1006.03	1009.41	1013.42

CCC(N)C(=O)O (stereo not drawn) [(.+-.)-α-aminobutyric acid] + O
mass density [kg/m3]
Conditions	m1 = 0.2006	m1 = 0.4945	m1 = 0.5944	m1 = 0.6791	m1 = 0.7812	m1 = 0.8868	m1 = 0.9902
288.15 K	1004.67	1012.46	1015	1017.13	1019.67	1022.24	1024.71
298.15 K	1002.5	1010.14	1012.62	1014.71	1017.19	1019.71	1022.13
308.15 K	999.41	1006.94	1009.38	1011.44	1013.88	1016.36	1018.74
310.15 K	998.69	1006.2	1008.64	1010.69	1013.12	1015.6	1017.97
318.15 K	995.55	1003.01	1005.46	1007.5	1009.85	1012.32	1014.68

C[C@H](N)C(=O)O [(S)-2-aminopropanoic acid] + O
mass density [kg/m3]
Conditions	m1 = 0.0522	m1 = 0.1036	m1 = 0.2032	m1 = 0.3122	m1 = 0.3941	m1 = 0.4964	m1 = 0.5873	m1 = 0.6752	m1 = 0.791
288.15 K	1000.63	1002.12	1004.98	1008.03	1010.29	1013.01	1015.47	1017.77	1020.75
298.15 K	998.58	1000.04	1002.84	1005.84	1008.05	1010.78	1013.15	1015.38	1018.3
308.15 K	995.56	997	999.75	1002.71	1004.9	1007.59	1009.93	1012.15	1015.04
310.15 K	994.85	996.28	999.03	1001.99	1004.18	1006.87	1009.2	1011.4	1014.3
318.15 K	991.74	993.17	995.9	998.84	1001	1003.68	1006.01	1008.22	1011.1

N[C@@H](CO)C(=O)O [L-serine] + O
mass density [kg/m3]
Conditions	m1 = 0.0489	m1 = 0.104	m1 = 0.2	m1 = 0.292	m1 = 0.3911	m1 = 0.471	m1 = 0.5884	m1 = 0.6788	m1 = 0.7168
288.15 K	1001.29	1003.76	1008.02	1012.04	1016.28	1019.63	1024.47	1028.16	1029.64
298.15 K	999.22	1001.64	1005.81	1009.76	1013.93	1017.22	1021.98	1025.59	1027.05
308.15 K	996.21	998.6	1002.72	1006.6	1010.72	1013.95	1018.62	1022.22	1023.66
310.15 K	995.5	997.89	1002	1005.88	1009.98	1013.21	1017.85	1021.44	1022.88
318.15 K	992.38	994.75	998.83	1002.65	1006.72	1009.93	1014.6	1018.12	1019.57

C[C@@H](O)[C@H](N)C(=O)O [L-threonine] + O
mass density [kg/m3]
Conditions	m1 = 0.1926	m1 = 0.2858	m1 = 0.3869	m1 = 0.4789	m1 = 0.5872	m1 = 0.6687
288.15 K	1007.25	1011.08	1015.18	1018.78	1022.93	1026.01
298.15 K	1005.04	1008.79	1012.82	1016.36	1020.45	1023.46
308.15 K	1001.91	1005.62	1009.58	1013.09	1017.13	1020.1
310.15 K	1001.19	1004.89	1008.86	1012.35	1016.39	1019.34
318.15 K	998.01	1001.68	1005.6	1009.09	1013.09	1016.02

O [water] + CCC(N)C(=O)O
Conditions	mass density [kg/m3]
310.15 K, m2 = 0	993.32

O [water] + CCCCn1cc[n+](C)c1.[Br-]
m2 = 0
Conditions	mass density [kg/m3]
308.15 K	994.07
310.15 K	993.37
318.15 K	990.26

O [water] + C[C@@H](O)[C@H](N)C(=O)O
Conditions	mass density [kg/m3]
310.15 K, m2 = 0	993.32

O [water] + C[C@H](N)C(=O)O
m2 = 0
Conditions	mass density [kg/m3]
308.15 K	994.08
310.15 K	993.38
318.15 K	990.27

O [water] + NCC(=O)O
m2 = 0
Conditions	mass density [kg/m3]
308.15 K	994.07
310.15 K	993.37
318.15 K	990.26

O [water] + N[C@@H](CO)C(=O)O
m2 = 0
Conditions	mass density [kg/m3]
308.15 K	994.06
310.15 K	993.36
